Results taken from the supplement of paper PMC10307832.

Experiments:
Experiment in all cases: relative viability (nuclei count vs DMSO), 5 days (fraction); higher = more cells survive
A-427 = tested on: A-427
Summary of the method: (§1)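 Lung cancer cell lines in 1536-well plates were dosed by pin tool the day after seeding, either with one drug alone or with a fixed anchor-drug dose plus five library-drug doses (not always all listed) in √10 steps. After 5 days, cells were fixed and their nuclei stained in one step (final 0.05% Triton X-100, 1% formaldehyde, 1 ug/ml Hoechst), then counted on 4× images. Relative viability is the nuclei count in treated wells divided by that in vehicle wells. Values are medians of duplicate plates.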

NCI-H1650 = tested on: NCI-H1650
Summary of the method: as §1

NCI-H596 = tested on: NCI-H596
Summary of the method: as §1

NCI-H2085 = tested on: NCI-H2085
Summary of the method: as §1

NCI-H520 = tested on: NCI-H520
Summary of the method: as §1

SW 1573 = tested on: SW 1573
Summary of the method: as §1

H3255 = tested on: H3255
Summary of the method: as §1

NCI-H460 = tested on: NCI-H460
Summary of the method: as §1

NCI-H1755 = tested on: NCI-H1755
Summary of the method: as §1

NCI-H2228 = tested on: NCI-H2228
Summary of the method: as §1

NCI-H1355 = tested on: NCI-H1355
Summary of the method: as §1

EKVX = tested on: EKVX
Summary of the method: as §1

NCI-H838 = tested on: NCI-H838
Summary of the method: as §1

LK-2 = tested on: LK-2
Summary of the method: as §1

NCI-H322M = tested on: NCI-H322M
Summary of the method: as §1

NCI-H650 = tested on: NCI-H650
Summary of the method: as §1

NCI-H1944 = tested on: NCI-H1944
Summary of the method: as §1

NCI-H441 = tested on: NCI-H441
Summary of the method: as §1

ChaGo-K-1 = tested on: ChaGo-K-1
Summary of the method: as §1

NCI-H1666 = tested on: NCI-H1666
Summary of the method: as §1

NCI-H358 = tested on: NCI-H358
Summary of the method: as §1

NCI-H3122 = tested on: NCI-H3122
Summary of the method: as §1

NCI-H2347 = tested on: NCI-H2347
Summary of the method: as §1

In the case of `O=c1[nH]c2ccccc2n1C1CCN(CCCC(c2ccc(F)cc2)c2ccc(F)cc2)CC1` [Pimozide] + COc1cccc2cc(-c3nc([C@H]4CC[C@H](C(=O)O)CC4)n4ncnc(N)c34)[nH]c12 [OSI-027] (partner 0.5 µM), the relative viability (A-427; first compound 0.08 µM) is reported as 0.433, the relative viability (A-427; first compound 0.253 µM) is reported as 0.468 and the relative viability (A-427; first compound 0.8 µM) is reported as 0.414. For the same molecule, the relative viability (A-427; first compound 2.53 µM) was 0.419, the relative viability (A-427; first compound 8 µM) was 0.406 and the relative viability (NCI-H1650; first compound 0.08 µM) was 0.459. For the same molecule, the relative viability (NCI-H1650; first compound 0.253 µM) was 0.668, the relative viability (NCI-H1650; first compound 0.8 µM) was 0.491 and the relative viability (NCI-H1650; first compound 2.53 µM) was 0.643. The relative viability (NCI-H1650; first compound 8 µM) was 0.437, the relative viability (NCI-H596; first compound 0.08 µM) was 0.627 and the relative viability (NCI-H596; first compound 0.253 µM) was 0.851. The relative viability (NCI-H596; first compound 0.8 µM) was 0.642, the relative viability (NCI-H596; first compound 2.53 µM) was 0.627 and the relative viability (NCI-H596; first compound 8 µM) was 0.481. For the same molecule, the relative viability (NCI-H2085; first compound 0.08 µM) was 0.59, the relative viability (NCI-H2085; first compound 0.253 µM) was 0.736 and the relative viability (NCI-H2085; first compound 0.8 µM) was 0.701. The relative viability (NCI-H2085; first compound 2.53 µM) was 0.709, the relative viability (NCI-H2085; first compound 8 µM) was 0.61 and the relative viability (NCI-H520; first compound 0.08 µM) was 0.24. The relative viability (NCI-H520; first compound 0.253 µM) was 0.255, the relative viability (NCI-H520; first compound 0.8 µM) was 0.235 and the relative viability (NCI-H520; first compound 2.53 µM) was 0.212. The relative viability (NCI-H520; first compound 8 µM) was 0.227, the relative viability (SW 1573; first compound 0.08 µM) was 0.611 and the relative viability (SW 1573; first compound 0.253 µM) was 0.668. The relative viability (SW 1573; first compound 0.8 µM) was 0.602, the relative viability (SW 1573; first compound 2.53 µM) was 0.525 and the relative viability (SW 1573; first compound 8 µM) was 0.307. The relative viability (H3255; first compound 0.253 µM) was 0.514, the relative viability (H3255; first compound 0.8 µM) was 0.563 and the relative viability (H3255; first compound 2.53 µM) was 0.6. The relative viability (H3255; first compound 8 µM) was 0.584, the relative viability (NCI-H460; first compound 0.08 µM) was 0.755 and the relative viability (NCI-H460; first compound 0.253 µM) was 0.66. It also gave a relative viability (NCI-H460; first compound 0.8 µM) of 0.708, a relative viability (NCI-H460; first compound 2.53 µM) of 0.518 and a relative viability (NCI-H460; first compound 8 µM) of 0.484. For the same molecule, the relative viability (NCI-H1755; first compound 0.08 µM) was 0.678, the relative viability (NCI-H1755; first compound 0.253 µM) was 0.687 and the relative viability (NCI-H1755; first compound 0.8 µM) was 0.678. The relative viability (NCI-H1755; first compound 2.53 µM) was 0.597, the relative viability (NCI-H1755; first compound 8 µM) was 0.51 and the relative viability (NCI-H2228; first compound 0.08 µM) was 0.537. The relative viability (NCI-H2228; first compound 0.253 µM) was 0.644, the relative viability (NCI-H2228; first compound 0.8 µM) was 0.587 and the relative viability (NCI-H2228; first compound 2.53 µM) was 0.451. The relative viability (NCI-H2228; first compound 8 µM) was 0.221, the relative viability (NCI-H1355; first compound 0.08 µM) was 0.326 and the relative viability (NCI-H1355; first compound 0.253 µM) was 0.398. For the same molecule, the relative viability (NCI-H1355; first compound 0.8 µM) was 0.305, the relative viability (NCI-H1355; first compound 2.53 µM) was 0.357 and the relative viability (NCI-H1355; first compound 8 µM) was 0.34. The relative viability (EKVX; first compound 0.08 µM) was 0.548, the relative viability (EKVX; first compound 0.253 µM) was 0.733 and the relative viability (EKVX; first compound 0.8 µM) was 0.668. The relative viability (EKVX; first compound 2.53 µM) was 0.637, the relative viability (EKVX; first compound 8 µM) was 0.647 and the relative viability (NCI-H838; first compound 0.08 µM) was 0.409. It also gave a relative viability (NCI-H838; first compound 0.253 µM) of 0.388, a relative viability (NCI-H838; first compound 0.8 µM) of 0.33 and a relative viability (NCI-H838; first compound 2.53 µM) of 0.4. The relative viability (NCI-H838; first compound 8 µM) was 0.353, the relative viability (LK-2; first compound 0.08 µM) was 0.183 and the relative viability (LK-2; first compound 0.253 µM) was 0.249. For the same molecule, the relative viability (LK-2; first compound 0.8 µM) was 0.179, the relative viability (LK-2; first compound 2.53 µM) was 0.198 and the relative viability (LK-2; first compound 8 µM) was 0.167. It also gave a relative viability (NCI-H322M; first compound 0.253 µM) of 0.525, a relative viability (NCI-H322M; first compound 0.8 µM) of 0.508 and a relative viability (NCI-H322M; first compound 2.53 µM) of 0.545. The relative viability (NCI-H322M; first compound 8 µM) was 0.572, the relative viability (NCI-H650; first compound 0.08 µM) was 0.536 and the relative viability (NCI-H650; first compound 0.253 µM) was 0.555. For the same molecule, the relative viability (NCI-H650; first compound 0.8 µM) was 0.405, the relative viability (NCI-H650; first compound 2.53 µM) was 0.537 and the relative viability (NCI-H650; first compound 8 µM) was 0.606. The relative viability (NCI-H1944; first compound 0.08 µM) was 0.347, the relative viability (NCI-H1944; first compound 0.253 µM) was 0.417 and the relative viability (NCI-H1944; first compound 0.8 µM) was 0.33. The relative viability (NCI-H1944; first compound 2.53 µM) was 0.389, the relative viability (NCI-H1944; first compound 8 µM) was 0.37 and the relative viability (NCI-H441; first compound 0.08 µM) was 0.608. It also gave a relative viability (NCI-H441; first compound 0.253 µM) of 0.577, a relative viability (NCI-H441; first compound 0.8 µM) of 0.478 and a relative viability (NCI-H441; first compound 2.53 µM) of 0.436. It also gave a relative viability (NCI-H441; first compound 8 µM) of 0.406, a relative viability (ChaGo-K-1; first compound 0.08 µM) of 0.594 and a relative viability (ChaGo-K-1; first compound 0.253 µM) of 0.555. The relative viability (ChaGo-K-1; first compound 0.8 µM) was 0.517, the relative viability (ChaGo-K-1; first compound 2.53 µM) was 0.531 and the relative viability (ChaGo-K-1; first compound 8 µM) was 0.485. It also gave a relative viability (NCI-H1666; first compound 0.08 µM) of 0.874, a relative viability (NCI-H1666; first compound 0.253 µM) of 0.832 and a relative viability (NCI-H1666; first compound 0.8 µM) of 0.772. For the same molecule, the relative viability (NCI-H1666; first compound 2.53 µM) was 0.699, the relative viability (NCI-H1666; first compound 8 µM) was 0.808 and the relative viability (NCI-H358; first compound 0.08 µM) was 0.829. It also gave a relative viability (NCI-H358; first compound 0.253 µM) of 0.74, a relative viability (NCI-H358; first compound 0.8 µM) of 0.697 and a relative viability (NCI-H358; first compound 2.53 µM) of 0.646. For the same molecule, the relative viability (NCI-H358; first compound 8 µM) was 0.678, the relative viability (NCI-H3122; first compound 0.08 µM) was 1.01 and the relative viability (NCI-H3122; first compound 0.253 µM) was 0.873. It also gave a relative viability (NCI-H3122; first compound 0.8 µM) of 0.826, a relative viability (NCI-H3122; first compound 2.53 µM) of 0.926 and a relative viability (NCI-H3122; first compound 8 µM) of 0.822. The relative viability (NCI-H2347; first compound 0.253 µM) was 0.497, the relative viability (NCI-H2347; first compound 0.8 µM) was 0.413 and the relative viability (NCI-H2347; first compound 2.53 µM) was 0.39. For the same molecule, the relative viability (NCI-H2347; first compound 8 µM) was 0.359.
